Measured values taken from PMC9322052, “Synthesis and Biological Activity Screening of Newly Synthesized Trimethoxyphenyl-Based Analogues as Potential Anticancer Agents” (Molecules, 2022).

Experiments:
[1] = tested on: hepatocellular carcinoma HepG2 cell line; experiment: MTT cytotoxicity assay, HepG2; assay type: cell-based, human; settings: Homo sapiens, HepG2, 24 h, 24 h treatment, mean ± SE
Method: All the newly synthesized analogs were evaluated for their in vitro cytotoxicity against the hepatocellular carcinoma HepG2 cell line. Podo was utilized as a reference control in the current study. […] The N-phenyl triazinone derivative 9 was further investigated for its cytotoxic effects against normal liver cell line HL-7702.
MTT colorimetric assay was carried out to investigate the impact of the newly synthesized compounds 2–11 on hepatocellular carcinoma (HepG2) and normal liver cell line (HL-7702) cell lines. See Section 3.3.1 in Supplementary Material.
3.3.1. Cytotoxic activity evaluation
To measure the cytotoxic activity of the synthesized derivatives 2a-11 in hepatocel-lular carcinoma (HepG2) cell line (ATCC Cat No. HB-8065) as well as normal human liver cell line HL-7702 (ATCC Cat. No. 77402), cell viability assay was assessed using MTT assay method. Cells at density of 1 x 104 were seeded in a 96-well plate at 37 °C for 24 h under 5% CO2. After incubation, the cells were treated with different concentrations of the test compounds 2a-11 and incubated for 24 h, then 20 μl of MTT solution at 5 mg/mL was applied and incubated for 4 h at 37 °C. Dimethyl sulphoxide (DMSO) in volume of 100 µl was added to each well to dissolve the purple formazan that had formed. The color inten-sity of the formazan product, which represents the growth condition of the cells, is quan-tified by using an ELISA plate reader (EXL 800, USA) at 570 nm absorbance. The experi-mental conditions were carried out with at least three replicates, and the experiments were repeated at least three times.
3.3.2. Tubulin inhibitions Assay
Compounds 9, 10 and 11 were evaluated for their tubulin inhibitory activity levels according to the manufacturer’s instructions using # abcam Human Beta-tubulin simplestep […]
3.3.3. Cell cycle analysis of compound 9
Cell cycle analysis in HepG2 cells was investigated using fluorescent Annexin V-FITC/ PI detection kit (BioVision EZCellTM Cell Cycle Analysis Kit Catalog #K920) by flow cytometry assay. HepG2 cells at a density of 2 × 10^5 per well were harvested and washed twice in PBS. After that, the cells were incubated at 37 °C and 5% CO2. […] Afterward, medium was stained with DNA flu-orochrome PI for 15 min at 37 °C. The samples were immediately analyzed using Facs Calibur flow cytometer (Becton and Dickinson, Heidelberg, Germany).
3.3.4. Apoptosis assay for compound 9
Apoptosis in HepG2 cells was investigated using fluorescent Annexin V-FITC/ PI de-tection kit (BioVision Annexin V-FITC Apoptosis Detection Kit, Catalog #: K101) by flow cy-tometry assay. HepG2 cells at a density of 2 × 10^5 per well were treated with compound 9 at its IC50 (μM) for 48 h, then the cells were harvested and stained with Annexin V-FITC/ PI dye for 15 min in the dark at 37 °C. The samples were immediately analyzed using FACS Calibur flow cytometer (Becton and Dickinson, Heidelberg, Germany).
3.3.5. Measurement of mitochondrial membrane potential (MMP) for compound 9 MMP was measured by FACS analysis using abcam ab113852TMRE Mitochondrial Membrane Potential Assay Kit with DiOC2(3) staining using MitoProbe™ DiOC2(3) Assay Kit for Flow Cytometry (M34150). After treatment with compound 9 at its IC50 concentra-tion, cells were stained with DiOC2(3) dye for 30 min in the incubator, then harvested and washed with PBS. DiOC2(3)-stained cells were represented with Annexin binding buffer and incubated at 37 °C for 15 min. The samples were immediately analyzed using cell […]
3.3.6. Effect on p53, Bax and Bcl-2 p53, Bax and Bcl2 enzyme activities in HepG2 cells were detected in the presence of com-pound 9 at its IC50 concentration (μM). The levels of the tumor suppressor gene p53, apoptotic markers Bax as well as the anti-apoptotic marker Bcl-2 were assessed using p53 ELISA kit, Human Bax ELISA kit and Bcl-2 Elisa kit. […]

β-tubulin = experiment: Tubulin polymerization inhibition (beta-tubulin ELISA in HepG2 cells); assay type: cell-based, human; settings: HepG2 cells, each compound at its IC50 concentration (9 1.38, 10 2.52, 11 3.21, podo 2.08 μM), ELISA
Method: The selected candidates were tested at a concentration equal to their IC50 concentration dose value. […] See Section 3.3.2 in Supplementary Material. […] page 18: 3.3. Biological studies 3.3.1. Cytotoxic activity evaluation To measure the cytotoxic activity of the synthesized derivatives 2a-11 in hepatocel- lular carcinoma (HepG2) cell line (ATCC Cat No. HB-8065) as well as normal human liver cell line HL-7702 (ATCC Cat. No. 77402), cell viability assay was assessed using MTT assay method. Cells at density of 1 x 104 were seeded in a 96-well plate at 37 °C for 24 h under 5% CO2. After incubation, the cells were treated with different concentrations of the test compounds 2a-11 and incubated for 24 h, then 20 μl of MTT solution at 5 mg/mL was […] Dimethyl sulphoxide (DMSO) in volume of 100 μl was added to each well to dissolve the purple formazan that had formed. The color […] of the formazan product, which represents the growth condition of the cells, is quan- […] by using an ELISA plate reader (EXL 800, USA) at 570 nm absorbance. The experi- mental conditions were carried out with at least three replicates, and the experiments were repeated at least three times. 3.3.2. Tubulin inhibitions Assay […] according to the manufacturer's instructions using # abcam Human Beta-tubulin […] ELISA Kit ab245722. 3.3.3. Cell cycle analysis of compound 9 Cell cycle analysis in HepG2 cells was investigated using fluorescent Annexin V- FITC/ PI detection kit (BioVision EZCellTM Cell Cycle Analysis Kit Catalog #K920) by flow cytometry assay. […] twice in PBS. After that, the cells were incubated at 37 °C and 5% CO2. […] Apoptosis assay for compound 9 Apoptosis in HepG2 cells was investigated using fluorescent Annexin V-FITC/ PI de- tection kit (BioVision Annexin V-FITC Apoptosis Detection Kit, Catalog #: K101) by flow cy- tometry assay. […] The samples were immediately analyzed using FACS Calibur flow cytometer (Becton and Dickinson, Heidelberg, Germany). 3.3.5. Measurement of mitochondrial membrane potential (MMP) for compound 9 MMP was measured by FACS analysis using abcam ab113852TMRE Mitochondrial Membrane Potential Assay Kit with DiOC2(3) staining using MitoProbeTM DiOC2(3) Assay Kit for Flow Cytometry (M34150). After treatment with compound 9 at its IC50 concentra- tion, cells were stained with DiOC2(3) dye for 30 min in the incubator, then harvested and washed with PBS. […] The samples were immediately analyzed using cell Quest software. […] Effect on p53, Bax and Bcl-2 p53, Bax and Bcl2 enzyme activities in HepG2 cells were detected in the presence of com- pound 9 at its IC50 concentration (μM). The levels of the tumor suppressor gene p53, apoptotic markers Bax as well as the anti-apoptotic marker Bcl-2 were assessed using p53 ELISA kit, Human Bax ELISA kit and Bcl-2 Elisa kit. […]

Structure (SMILES): COc1ccc(C2=N/C(=C\c3cc(OC)c(OC)c(OC)c3)C(=O)NN2c2ccccc2)cc1OC [Compound 9, (Z)-3-(3,4-Dimethoxyphenyl)-2-Phenyl-5-(3,4,5-Trimethoxybenzylidene)-1,2-Dihydro-1,2,4-Triazin-6(5H)-one]
- IC50 [1]: 1.38 ± 0.15 µM
- β-tubulin polymerization inhibition percentage (β-tubulin): 86.73%
